Read-outs that look alike come from different tables or passages of the source.
Target: T1, δ opioid receptor (Homo sapiens, UniProt P41143)
T1 construct: expressed in transfected cells; host or cells: CHO cells (membranes)
Assay: Competition binding assay on membranes of CHO cells expressing δ opioid receptor, [3H]-labeled ligand
Procedure, shortened: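 CHO membranes (20–30 μg protein) incubated with [3H]-labeled ligand at 1–2 nM and test compounds, 30 min at 30° C; nonspecific binding with 1 μM corresponding ligand. Filtered on GF/C, washed with 50 mM Tris-HCl pH 7.4, scintillation-counted. IC50 converted to Ki by Ki=IC50/(1+[L]/Kd).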

T1 sequence (P41143 whole entry): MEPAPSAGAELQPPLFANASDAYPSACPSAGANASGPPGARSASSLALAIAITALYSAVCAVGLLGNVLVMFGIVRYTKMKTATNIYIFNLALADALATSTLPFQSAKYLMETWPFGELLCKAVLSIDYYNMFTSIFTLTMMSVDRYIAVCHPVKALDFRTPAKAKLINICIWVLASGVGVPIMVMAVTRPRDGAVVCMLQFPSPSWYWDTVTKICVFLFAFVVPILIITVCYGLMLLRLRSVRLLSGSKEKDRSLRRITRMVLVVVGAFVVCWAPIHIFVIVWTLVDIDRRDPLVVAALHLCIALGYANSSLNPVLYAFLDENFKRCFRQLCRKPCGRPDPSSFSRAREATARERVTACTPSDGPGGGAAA

COc1cccc(C2(O)CCCCC2CN(C)C)c1 (centres unmarked) [Tramadol, reference compound]
0%: inhibition at 10 µM (0.5 h, Table 1-1, 10 μM concentration of compound, read-out: δOR Binding rate (%)) | inhibition at 1 µM (0.5 h, Table 2-1, 1 μM concentration of compound, read-out: δOR Binding rate (%)) | inhibition at 1 µM (0.5 h, Table 5-1, 1 μM concentration of compound, read-out: δOR Combination rate (%)) | δOR Binding rate (%) (Table 3-1, 1 μM concentration of compounds) | δOR Binding rate (%) (Table 4-1, 1 μM concentration of compound)
